Patent US12377164B2, “Linkers and conjugates” (ASTRAZENECA AB, priority 2018, dated 2025)
Each block holds one compound with its values, some of them ahead of it. Non-standard residues stand in square brackets, D forms with d. Residues, ends and D or L forms follow the SMILES beside them. *: point of attachment. Dolaproine = CO[C@@H]([C@@H]1CCCN1)[C@@H](C)C(=O)O; Dil = CC[C@H](C)[C@H](NC)[C@@H](CC(=O)O)OC; X1 = C[C@@H](N*)[C@@H](O)c1ccccc1; NMeV = CN[C@H](C(=O)O)C(C)C

How the values were obtained:
[1] = Stability of model cysteine conjugates incubated with excess reduced L-glutathione (GSH), tracked via 1H NMR; assay type: physicochemical; conditions: 3 equivalents GSH, pH 7.4 buffer, 37° C., after two weeks
Method: The stability of conjugate 3 under physiological conditions was investigated by incubation with excess (3 equivalents) reduced L-glutathione (GSH) in pH 7.4 buffer (40% CD-3OD/NaPi—50 mM) at 37° C. The stability was tracked via ^1H NMR and almost no degradation (<5%) was observed after two weeks.

[2] = system: HER2-positive SKBR3 and BT474 cells; test: Cell viability (CellTiter-Glo), HER2-positive cells; assay type: cell-based; conditions: 96 h, HER2-positive cell lines, FIG. 2
Method: (§1) HER2-positive SKBR3 and BT474 cells were obtained from the American Type Culture Collection (ATCC) and HER2-negative MCF7 and T47D cells were obtained from the European Collection of Authenticated Cell Cultures (ECACC) and ATCC, respectively. SKBR3 cells were maintained in high glucose McCoy's 5A medium, supplemented with 10% heat-inactivated foetal-bovine serum (FBS), 50 U/mL penicillin and 50 μg/mL streptomycin. MCF7 cells were maintained in Dulbecco's Modified Eagle Medium (DMEM) supplemented with 10% heat-inactivated fetal-bovine serum (FBS), 2 mM L-glutamine, 50 U/mL penicillin and 50 μg/mL streptomycin. BT474 and T47D cell lines were maintained in RPM11640 medium supplemented with 10% heat-inactivated fetal-bovine serum (FBS), 2 mM L-glutamine, 50 U/mL penicillin and 50 μg/mL streptomycin. All cell lines were incubated at 37° C. with 5% CO2.
(§2) Cells were seeded in 96-well plates for 24 h at 37° C. with 5% CO2. SKBR3 cells were seeded at 15,000 cells/well, BT474 cells were seeded at 20,000 cells/well, MCF7 cells were seeded at 7,500 cells/well and T47D cells were seeded at 10,000 cells/well. […] Cell viability was measured using CellTiter-Glo viability assay (Promega) according to the manufacturer's instructions. Cell viability was plotted as a percentage of untreated cells.

[3] = system: HER2-negative MCF7 and T47D cells; test: Cell viability (CellTiter-Glo), HER2-negative cells; assay type: cell-based; conditions: 96 h, HER2-negative cell lines, FIG. 2
Method: as §1, §2

trastuzumab Fab = test: Trastuzumab Fab conjugation kinetic experiment (LC-MS); conditions: 10 and 20 equivalents of linker, after 15 minutes, 37° C.
Method: The mixtures were vortexed and incubated at 37° C. for 1 h. A solution of 8 (10 mM in DMSO) was added to each solution (final concentration equal to 10 and 20 equivalents) and the reaction mixture incubated at 37° C. At t=0, 5, 10, 15, 20, 30, 40 and 60 min, 0.5 μL was removed from each reaction, diluted with MilliQ water (9 μL) and quenched with 100 eq. of cysteine (5 mM in DMSO). LC-MS analysis was then used to quantify conversion.

degradation [1]: < 5%
SMILES: COC(=O)[C@H](CSCCc1ccnc(N)n1)NC(=O)OC(C)(C)C [compound 3]

SMILES: COC(=O)[C@H](CSC1CC(=O)N(Cc2ccccc2)C1=O)NC(=O)OC(C)(C)C (stereo partly drawn) [compound 6, methyl S-(1-benzyl-2,5-dioxopyrrolidin-3-yl)-N-(tert-butoxycarbonyl)-L-cysteinate]
conversion to the glutathione conjugate [1]: > 50%

SMILES: CC[C@H](C)[C@@H]([C@@H](CC(=O)N1CCC[C@H]1[C@H](OC)[C@@H](C)C(=O)N[C@H](C)[C@@H](O)c1ccccc1)OC)N(C)C(=O)[C@@H](NC(=O)[C@@H](NC)C(C)C)C(C)C [MMAE] (H-[NMeV]V[Dil][Dolaproine]-X1)
cytotoxicity (cell viability) [2]: high levels of cytotoxicity
cytotoxicity (cell viability) [3]: high levels of cytotoxicity

SMILES: C#CCCCCNc1nc(C=C)cc(C=C)n1 [compound 8, N-(hex-5-yn-1-yl)-4,6-divinylpyrimidin-2-amine]
re-bridging of the Fab chains (trastuzumab Fab): > 90%
